According to patent US20260372305A1, “A METHOD FOR CONTROLLING WEEDS” (SYNGENTA CROP PROTECTION AG, priority 2022, published 2026):

How the values were obtained:
Type in all cases: in vivo
[1] = system: Amaranthus palmeri, PPO inhibitor sensitive population ('Sensitive'); assay: Postemergence control of PPO inhibitor sensitive Amaranthus palmeri (Example 1); conditions: for use rate achieving complete control (no surviving plants) of the 'sensitive' population / % Survival out of 14 repetitions: postemergence, 14 days after application; for % Survival out of 14 repetitions: Sensitive, Adigor 0.5% by volume
Description: (§1) The commercial standard PPO inhibitor fomesafen and compound 1 of the present application were applied to two Amaranthus palmeri populations in order to determine the impact of mutations at amino acid 98 in PPX2L from the wild-type arginine to a glycine.
(§2) The two A. palmeri populations used were as follows: a known PPO inhibitor sensitive population (‘Sensitive’), a population of which each individual was known to be homozygous for a glycine at amino acid 98 in the protoporphyrinogen oxidase gene PPX2L (‘98GG’).
(§3) Seeds were sown in seed trays containing ericaceous compost and covered with vermiculite. When approximately 1 inch in height plants were transplanted 1 per pot into 3-inch diameter pots containing ericaceous compost. The pots were watered and maintained in a glasshouse providing a 16 H photoperiod of 180 μmol m^−2 s^−1 with 24 °C daytime temperatures and 18 °C night-time temperatures and 65% relative humidity until 3 inches tall at which point the herbicides were applied at the use rates specified in Table 1 below to 14 individual plants per rate of each of the biotypes.
(§4) All treatments were applied as dilutions in reverse osmosis water and with the commercial adjuvant Adigor® at 0.5% by volume. Prior to dilution with water compound 8 was initially dissolved to a 5% solution in a solvent mixture comprising 11.12% Emulsogen EL 360, 44.44% Dowanol DPM and 44.44% N-methyl pyrrolidone. Herbicide applications were carried out in a track sprayer with a flat fan nozzle applying the herbicide treatments at a rate of 200 L/ha^−1.
(§5) After treatment, the plants were watered and maintained in a glasshouse providing a 16 H photoperiod of 180 μmol m^−2 s^−1 with 24 °C daytime temperatures and 18 °C night-time temperatures and 65% relative humidity until 14 days after application at which point they were assessed on a ‘dead or alive’ basis. The plants still alive at this point were classed as surviving the herbicide application and the averaged results of this assessment are presented in Table 1.

[2] = system: Amaranthus palmeri, homozygous for glycine at amino acid 98 in PPX2L ('98GG', R98G); assay: Postemergence control of Amaranthus palmeri with R98G mutation in PPX2L (Example 1); conditions: for % Survival out of 14 repetitions: R98G, postemergence, 14 days after application, Adigor 0.5% by volume
Description: as §1, §2, §3, §4, §5

[3] = system: Amaranthus tuberculatus, Sensitive; assay: Postemergence control of sensitive population (Example 2); conditions: Agridex 1% by volume

SMILES: CCOC(=O)[C@]1(C)CC(c2cc(-n3c(=O)n(C)c(=S)n(C)c3=O)c(F)cc2Cl)=NO1 [compound 1, ethyl (5S)-3-[2-chloro-5-(3,5-dimethyl-2,6-dioxo-4-thioxo-1,3,5-triazinan-1-yl)-4-fluoro-phenyl]-5-methyl-4H-isoxazole-5-carboxylate]
- ability for controlling the 'sensitive' population compared with fomesafen ([1]; 'sensitive' population, compared with fomesafen): improved ability compared with fomesafen for controlling the ‘sensitive’ population
- use rate achieving complete control (no surviving plants) of the 'sensitive' population ([1]; 'sensitive' population): ≥ 16 g ai/ha^−1
- % Survival out of 14 repetitions ([1]; 0.5 g ai/ha^−1): 100%
- % Survival out of 14 repetitions ([1]; 1 g ai/ha^−1): 100%
- % Survival out of 14 repetitions ([1]; 2 g ai/ha^−1): 86%
- % Survival out of 14 repetitions ([1]; 4 g ai/ha^−1): 43%
- % Survival out of 14 repetitions ([1]; 8 g ai/ha^−1): 7%
- % Survival out of 14 repetitions ([1]; 16 g ai/ha^−1): 0%
- % Survival out of 14 repetitions ([1]; 32 g ai/ha^−1): 0%
- % Survival out of 14 repetitions ([1]; 64 g ai/ha^−1): 0%
- control of '98GG' ([2]; '98GG', 16 g ai/ha^−1 rate, compared with fomesafen): better control of ‘98GG’
- % Survival out of 14 repetitions ([2]; 0.5 g ai/ha^−1): 100%
- % Survival out of 14 repetitions ([2]; 1 g ai/ha^−1): 100%
- % Survival out of 14 repetitions ([2]; 2 g ai/ha^−1): 100%
- % Survival out of 14 repetitions ([2]; 4 g ai/ha^−1): 100%
- % Survival out of 14 repetitions ([2]; 8 g ai/ha^−1): 100%
- % Survival out of 14 repetitions ([2]; 16 g ai/ha^−1): 79%
- % Survival out of 14 repetitions ([2]; 32 g ai/ha^−1): 79%
- % Survival out of 14 repetitions ([2]; 64 g ai/ha^−1): 21%
- % Survival out of 14 repetitions ([3]; 0.5 g ai/ha^−1, 14 days after application): 100%
- % Survival out of 14 repetitions ([3]; 1 g ai/ha^−1, 14 days after application): 100%
- % Survival out of 14 repetitions ([3]; 2 g ai/ha^−1, 14 days after application): 86%
- % Survival out of 14 repetitions ([3]; 4 g ai/ha^−1, 14 days after application): 43%
- % Survival out of 14 repetitions ([3]; 8 g ai/ha^−1, 14 days after application): 14%
- % Survival out of 14 repetitions ([3]; 16 g ai/ha^−1, 14 days after application): 0%
- % Survival out of 14 repetitions ([3]; 32 g ai/ha^−1, 14 days after application): 0%
- % Survival out of 14 repetitions ([3]; 64 g ai/ha^−1, 14 days after application): 0%

SMILES: CS(=O)(=O)NC(=O)c1cc(Oc2ccc(C(F)(F)F)cc2Cl)ccc1[N+](=O)[O-] [fomesafen, reference compound]
- use rate achieving complete control (no surviving plants) of the 'sensitive' population ([1]; 'sensitive' population): ≥ 64 g ai/ha^−1
- % Survival out of 14 repetitions ([1]; 1 g ai/ha^−1): 100%
- % Survival out of 14 repetitions ([1]; 2 g ai/ha^−1): 100%
- % Survival out of 14 repetitions ([1]; 4 g ai/ha^−1): 86%
- % Survival out of 14 repetitions ([1]; 8 g ai/ha^−1): 71%
- % Survival out of 14 repetitions ([1]; 16 g ai/ha^−1): 14%
- % Survival out of 14 repetitions ([1]; 32 g ai/ha^−1): 7%
- % Survival out of 14 repetitions ([1]; 64 g ai/ha^−1): 0%
- % Survival out of 14 repetitions ([1]; 128 g ai/ha^−1): 0%
- % Survival out of 14 repetitions ([2]; 1 g ai/ha^−1): 100%
- % Survival out of 14 repetitions ([2]; 2 g ai/ha^−1): 100%
- % Survival out of 14 repetitions ([2]; 4 g ai/ha^−1): 100%
- % Survival out of 14 repetitions ([2]; 8 g ai/ha^−1): 100%
- % Survival out of 14 repetitions ([2]; 16 g ai/ha^−1): 100%
- % Survival out of 14 repetitions ([2]; 32 g ai/ha^−1): 93%
- % Survival out of 14 repetitions ([2]; 64 g ai/ha^−1): 93%
- % Survival out of 14 repetitions ([2]; 128 g ai/ha^−1): 93%
